Measurements as given in US20210255193A1, “LYSINE REACTIVE PROBES AND USES THEREOF” (The Scripps Research Institute, priority 2017, published 2021).
Values belong to the molecule of their own block, whether it stands above or below them.

Tests used:
Experiment in all cases: competitive isoTOP-ABPP
[1] = target: T1, PSMC6 26S protease regulatory subunit 10B (Homo sapiens, UniProt P62333); type: binding; details: for isoTOP-ABPP ratio (R) at liganded lysine P62333_K72 / isoTOP-ABPP reactivity ratio at lysine P62333_K72: 50 uM, in vitro; for isoTOP-ABPP ratio (R) at liganded lysine P62333_K72: sol, 231; for isoTOP-ABPP reactivity ratio at lysine P62333_K72: 231 sol
T1 construct: isoTOP-ABPP experiments performed in cell lysates (in vitro); endogenous in cells; host or cells: soluble proteome of human cancer cell lines (MDA-MB-231, Ramos, Jurkat)
How it was run: (§1)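 Cell lysate treated in vitro with fragments (50 μM activated esters, 100 μM guanidinylating agents) or DMSO, labelled 1 h at ambient temperature with 0.1 mM STP-alkyne, CuAAC-tagged with light/heavy TEV tags, analysed by MS. R = DMSO/compound MS1 peak-area ratio; lysines with R≥4 called liganded.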

[2] = target: T2, EIF3G Eukaryotic translation initiation factor 3 subunit (Homo sapiens, UniProt O75821); type: binding; details: for R value (DMSO/fragment) for probe 1 labeling: O75821_K280; for R value (DMSO/fragment) for probe 1 labeling / isoTOP-ABPP reactivity ratio at lysine O75821_K280: 231 sol; for isoTOP-ABPP ratio, lysine O75821_K280: 50 uM_231_sol_in vitro
T2 construct: isoTOP-ABPP experiments performed in cell lysates (in vitro); endogenous in cells; host or cells: MDA-MB-231 soluble lysate
How it was run: as §1

[3] = target: T3, TARDBP TAR DNA-binding protein 43 (Homo sapiens, UniProt Q13148); details: for R value (DMSO/fragment) for probe 1 labeling: Q13148_K114; for R value (DMSO/fragment) for probe 1 labeling / isoTOP-ABPP ratio (R) at liganded lysine Q13148_K114 / isoTOP-ABPP reactivity ratio at lysine Q13148_K114: 50 uM, in vitro; for R value (DMSO/fragment) for probe 1 labeling / isoTOP-ABPP reactivity ratio at lysine Q13148_K114: 231 sol; for isoTOP-ABPP ratio (R) at liganded lysine Q13148_K114: sol, 231
T3 construct: isoTOP-ABPP experiments performed in cell lysates (in vitro); endogenous in cells; host or cells: soluble proteome of human cancer cell lines (MDA-MB-231, Ramos, Jurkat)
How it was run: as §1

[4] = target: T4, SNX8 Sorting nexin-8 (Homo sapiens, UniProt Q9Y5X2); type: binding; details: for isoTOP-ABPP reactivity ratio at lysine Q9Y5X2_K316 / isoTOP-ABPP ratio (R) at liganded lysine Q9Y5X2_K316: 50 uM, in vitro; for isoTOP-ABPP reactivity ratio at lysine Q9Y5X2_K316: 231 sol; for isoTOP-ABPP ratio (R) at liganded lysine Q9Y5X2_K316: sol, 231; for isoTOP-ABPP ratio, lysine Q9Y5X2_K316: 50 uM_231_sol_in vitro
T4 construct: endogenous in cells; host or cells: MDA-MB-231 lysate
T4 sequence (Q9Y5X2 1-465): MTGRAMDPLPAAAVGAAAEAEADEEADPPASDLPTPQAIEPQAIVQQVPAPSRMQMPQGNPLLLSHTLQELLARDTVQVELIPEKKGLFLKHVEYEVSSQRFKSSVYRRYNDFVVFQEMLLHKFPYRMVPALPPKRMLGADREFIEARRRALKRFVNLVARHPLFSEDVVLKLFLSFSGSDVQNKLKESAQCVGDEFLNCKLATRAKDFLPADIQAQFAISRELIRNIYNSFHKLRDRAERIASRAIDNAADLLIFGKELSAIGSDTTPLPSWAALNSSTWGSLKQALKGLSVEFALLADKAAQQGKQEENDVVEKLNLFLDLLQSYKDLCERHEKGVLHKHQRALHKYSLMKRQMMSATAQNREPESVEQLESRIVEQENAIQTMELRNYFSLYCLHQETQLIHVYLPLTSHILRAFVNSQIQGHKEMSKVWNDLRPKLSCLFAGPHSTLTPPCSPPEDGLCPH
How it was run: as §1

Compound: CC(C)(C)OC(=O)NCCCC(=O)Oc1ccc([N+](=O)[O-])cc1[N+](=O)[O-] [fragment 41, 2,4-Dinitrophenyl 4-((tert-butoxycarbonyl)amino)butanoate]
- isoTOP-ABPP ratio (R) at liganded lysine P62333_K72 [1]: 1.2

- R value (DMSO/fragment) for probe 1 labeling ([2]; 50 uM, in vitro): 0.6
- R value (DMSO/fragment) for probe 1 labeling [3]: 0.8
Compound: Cn1cc(CC(=O)Oc2c(F)c(F)c(F)c(F)c2F)c2ccccc21 [fragment 22, Pentafluorophenyl 2-(1-methyl-1H-indol-3-yl)acetate]

Compound: O=C(Oc1ccc([N+](=O)[O-])cc1[N+](=O)[O-])c1ccc(-c2ccccc2)cc1 [fragment 37, 2,4-Dinitrophenyl [1,1′-biphenyl]-4-carboxylate]
- isoTOP-ABPP ratio (R) at liganded lysine P62333_K72 [1]: 0.9
- isoTOP-ABPP ratio (R) at liganded lysine Q13148_K114 [3]: 1.3

Compound: COc1cc(CCC(=O)Oc2ccc([N+](=O)[O-])cc2[N+](=O)[O-])cc(OC)c1OC [fragment 33, 2,4-Dinitrophenyl 3-(3,4,5-trimethoxyphenyl)propanoate]
- isoTOP-ABPP reactivity ratio at lysine Q9Y5X2_K316 [4]: 4.1

- R value (DMSO/fragment) for probe 1 labeling ([2]; 50 uM, in vitro): 0.9
Compound: O=C(Oc1c(F)c(F)c(F)c(F)c1F)C(c1ccccc1)c1ccccc1 [fragment 20, Pentafluorophenyl 2,2-diphenylacetate]

Compound: O=C(Oc1ccc([N+](=O)[O-])cc1[N+](=O)[O-])c1ccc2ccccc2n1 [fragment 35, 2,4-Dinitrophenyl quinoline-2-carboxylate]
- isoTOP-ABPP ratio (R) at liganded lysine O75821_K280 ([2]; 50 uM, in vitro, sol, 231): 1.0

Compound: O=C(CCc1ccc2c(c1)OCO2)Oc1ccc([N+](=O)[O-])cc1[N+](=O)[O-] [fragment 45, 2,4-Dinitrophenyl 3-(benzo[d][1,3]dioxol-5-yl)propanoate]
- isoTOP-ABPP ratio, lysine O75821_K280 [2]: 0.9
- isoTOP-ABPP ratio, lysine Q13148_K114 ([3]; 50 uM_231_sol_in vitro): 20.0

Compound: O=C(Oc1ccc([N+](=O)[O-])cc1[N+](=O)[O-])c1ccccc1Nc1cccc(C(F)(F)F)c1 [fragment 40, 2,4-Dinitrophenyl 2-((3-(trifluoromethyl)phenyl)amino)benzoate]
- isoTOP-ABPP ratio (R) at liganded lysine Q9Y5X2_K316 [4]: 2.0

Compound: O=C(ON1C(=O)CCC1=O)c1cc(C(F)(F)F)cc(C(F)(F)F)c1 [fragment 46, 3,5-Bis(trifluoromethyl)benzoic acid NHS ester]
- isoTOP-ABPP ratio, lysine O75821_K280 [2]: 0.8
- isoTOP-ABPP ratio, lysine P62333_K72 ([1]; 50 uM_231_sol_in vitro): 0.9
- isoTOP-ABPP ratio, lysine Q9Y5X2_K316 [4]: 2.7

Compound: O=C(Oc1ccc([N+](=O)[O-])cc1[N+](=O)[O-])c1ccc(Oc2ccccc2)cc1 [fragment 39, 2,4-Dinitrophenyl 4-phenoxybenzoate]
- isoTOP-ABPP ratio (R) at liganded lysine P62333_K72 [1]: 1.1
- isoTOP-ABPP ratio (R) at liganded lysine Q9Y5X2_K316 [4]: 1.4
- isoTOP-ABPP ratio (R) at liganded lysine Q13148_K114 [3]: 0.9

Compound: O=C(Oc1ccc([N+](=O)[O-])cc1[N+](=O)[O-])C(c1ccccc1)c1ccccc1 [fragment 30, 2,4-Dinitrophenyl 2,2-diphenylacetate]
- isoTOP-ABPP reactivity ratio at lysine O75821_K280 ([2]; 50 uM, in vitro): 1.0

Compound: CC(=O)Oc1ccc([N+](=O)[O-])cc1[N+](=O)[O-] [fragment 43, 2,4-Dinitrophenyl acetate]
- isoTOP-ABPP ratio (R) at liganded lysine P62333_K72 [1]: 1.9

- R value (DMSO/fragment) for probe 1 labeling ([2]; 50 uM, in vitro): 1.7
- R value (DMSO/fragment) for probe 1 labeling [3]: 0.9
Compound: O=C(Oc1c(F)c(F)c(F)c(F)c1F)c1cc(C(F)(F)F)cc(C(F)(F)F)c1 [fragment 21, Pentafluorophenyl 3,5-bis(trifluoromethyl)benzoate]

Compound: Cn1cc(CC(=O)Oc2ccc([N+](=O)[O-])cc2[N+](=O)[O-])c2ccccc21 [fragment 32, 2,4-Dinitrophenyl 2-(1-methyl-1H-indol-3-yl)acetate]
- isoTOP-ABPP reactivity ratio at lysine P62333_K72 [1]: 1.4

Compound: O=C(CCc1cn(-c2ccccc2)nc1-c1ccccc1)Oc1ccc([N+](=O)[O-])cc1[N+](=O)[O-] [fragment 29, 2,4-Dinitrophenyl 3-(1,3-diphenyl-1H-pyrazol-4-yl)propanoate]
- isoTOP-ABPP reactivity ratio at lysine O75821_K280 ([2]; 50 uM, in vitro): 5.3
- isoTOP-ABPP reactivity ratio at lysine P62333_K72 [1]: 20.0
- isoTOP-ABPP reactivity ratio at lysine Q9Y5X2_K316 [4]: 3.4
- isoTOP-ABPP reactivity ratio at lysine Q13148_K114 [3]: 1.1

- isoTOP-ABPP reactivity ratio at lysine Q13148_K114 [3]: 1.0
Compound: O=C(Oc1c(F)c(F)c(F)c(F)c1F)C1CCN(C(=O)OCc2ccccc2)CC1 [fragment 24, 1-Benzyl 4-(pentafluorophenyl) piperidine-1,4-dicarboxylate]

- isoTOP-ABPP ratio, lysine Q9Y5X2_K316 [4]: 1.2
Compound: NC(=O)c1cc(C(F)(F)F)cc(C(F)(F)F)c1 [fragment 51, reference compound]

Compound: N#Cc1ccc(C(=O)Oc2ccc([N+](=O)[O-])cc2[N+](=O)[O-])cc1 [fragment 44, 2,4-Dinitrophenyl 4-cyanobenzoate]
- isoTOP-ABPP ratio, lysine O75821_K280 [2]: 0.9
- isoTOP-ABPP ratio, lysine Q13148_K114 ([3]; 50 uM_231_sol_in vitro): 20.0

- isoTOP-ABPP ratio, lysine P62333_K72 ([1]; 100 uM_231_sol_in vitro): 1.3
- isoTOP-ABPP ratio, lysine Q13148_K114 ([3]; 100 uM_231_sol_in vitro): 1.2
Compound: CC(C)(C)OC(=O)N=C(NC(=O)OC(C)(C)C)n1cccn1 [fragment 50, reference compound]

Compound: O=C(CCc1coc2cc(F)ccc2c1=O)Oc1ccc([N+](=O)[O-])cc1[N+](=O)[O-] [fragment 36, 2,4-Dinitrophenyl 3-(7-fluoro-4-oxo-4H-chromen-3-yl)propanoate]
- isoTOP-ABPP ratio (R) at liganded lysine Q9Y5X2_K316 [4]: 3.6
- isoTOP-ABPP ratio (R) at liganded lysine Q13148_K114 [3]: 1.2

- isoTOP-ABPP ratio, lysine Q13148_K114 ([3]; 100 uM_231_sol_in vitro): 20.0
Compound: COC(=O)NC(=NC(=O)OCC1c2ccccc2-c2ccccc21)n1cccn1 [fragment 49, N-Methoxycarbonyl-N′-9-fluorenylmethoxycarbonyl-pyrazole-1-carboxamidine]

- isoTOP-ABPP reactivity ratio at lysine P62333_K72 [1]: 20.0
Compound: CCn1cc(C(=O)Oc2c(F)c(F)c(F)c(F)c2F)c(=O)c2ccc(C)nc21 [fragment 28, Pentafluorophenyl 1-ethyl-7-methyl-4-oxo-1,4-dihydro-1,8-naphthyridine-3-carboxylate]
